Results as given in US9365576B2, “Pyrrolopyrrolidinone compounds” (Novartis AG, priority 2012, dated 2016).

These compounds were tested against human MDM2 protein (amino acids 2-188) (Homo sapiens (Human), UniProt Q00987) (assay: TR-FRET assay, p53-MDM2 Assay 2 (modified)). Conditions: TR-FRET; 0.1 nM MDM2, 0.1 nM Europium labeled streptavidin, Tecan genios Pro reader; read-out: IC50 p53-MDM2 Assay 2.
Type: binding
Procedure, shortened: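 IC50 values were curve-fitted from the time-resolved 665/620 nm emission ratio after 340 nm excitation. The assay combined 0.625 nM europium-streptavidin donor with 1.25 nM C-terminally biotinylated MDM2 2–188 (15 min, RT), followed by 15 min with 10 nM Cy5-labeled p53 18–26 acceptor peptide.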

human MDM2 protein (amino acids 2-188), sequence (Q00987 2-188): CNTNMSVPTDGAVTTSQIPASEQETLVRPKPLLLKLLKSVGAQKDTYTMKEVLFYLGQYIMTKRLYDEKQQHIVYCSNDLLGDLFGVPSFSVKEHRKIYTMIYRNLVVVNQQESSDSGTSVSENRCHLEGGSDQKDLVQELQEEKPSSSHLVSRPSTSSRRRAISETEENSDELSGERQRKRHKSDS

Row | SMILES | IC50
1 | CNC(=O)c1ccc(OC)c(-c2cc3c(n2C(C)C)[C@@H](c2ccc(Cl)cc2C)N(c2cc(Cl)ccc2C)C3=O)c1 [Example 33, 3-[(R)-5-(5-Chloro-2-methyl-phenyl)-6-(4-chloro-2-methyl-phenyl)-1-isopropyl-4-oxo-1,4,5,6-tetrahydro-pyrrolo[3,4-b]pyrrol-2-yl]-4-methoxy-N-methyl-benzamide] | 44.6 nM
2 | COc1nc(N(C)C)ncc1-c1cc2c(n1C(C)C)C(c1ccc(Cl)cc1)N(c1cc(C)nn1C)C2=O (stereo not drawn) [Example 177, 6-(4-Chloro-phenyl)-2-(2-dimethylamino-4-methoxy-pyrimidin-5-yl)-5-(2,5-dimethyl-2H-pyrazol-3-yl)-1-isopropyl-5,6-dihydro-1H-pyrrolo[3,4-b]pyrrol-4-one] | 0.514 nM
3 | COc1cn(C)c(=O)cc1-c1cc2c(n1C(C)C)C(c1ccc(Cl)cc1)N(c1cc(Cl)c(=O)n(C)c1)C2=O (stereo not drawn) [Example 150, 5-(5-Chloro-1-methyl-6-oxo-1,6-dihydro-pyridin-3-yl)-6-(4-chloro-phenyl)-1-isopropyl-2-(5-methoxy-1-methyl-2-oxo-1,2-dihydro-pyridin-4-yl)-5,6-dihydro-1H-pyrrolo[3,4-b]pyrrol-4-one] | 0.254 nM
4 | COc1nc(N(C)C)ncc1-c1cc2c(n1C(C)C)C(c1ccc(Cl)cc1)N(c1cc(Cl)cn(C)c1=O)C2=O (stereo not drawn) [Example 73, 5-(5-Chloro-1-methyl-2-oxo-1,2-dihydro-pyridin-3-yl)-6-(4-chloro-phenyl)-2-(2-dimethylamino-4-methoxy-pyrimidin-5-yl)-1-isopropyl-5,6-dihydro-1H-pyrrolo[3,4-b]pyrrol-4-one] | 0.161 nM
5 | COc1nc(N(C)C)ncc1-c1cc2c(n1C(C)C)C(c1ccc(C#N)c(F)c1)N(c1cc(Cl)c(=O)n(C)c1)C2=O (stereo not drawn) [Example 194, 4-[5-(5-Chloro-1-methyl-6-oxo-1,6-dihydro-pyridin-3-yl)-2-(2-dimethylamino-4-methoxy-pyrimidin-5-yl)-1-isopropyl-4-oxo-1,4,5,6-tetrahydro-pyrrolo[3,4-b]pyrrol-6-yl]-2-fluoro-benzonitrile] | 0.194 nM
6 | COc1nc(N(C)C)ncc1-c1cc2c(n1C(C)C)[C@H](c1ccc(Cl)cc1)N(c1c[nH]c(=O)c(Cl)c1)C2=O [Example 188, (S)-5-(5-Chloro-6-oxo-1,6-dihydro-pyridin-3-yl)-6-(4-chloro-phenyl)-2-(2-dimethylamino-4-methoxy-pyrimidin-5-yl)-1-isopropyl-5,6-dihydro-1H-pyrrolo[3,4-b]pyrrol-4-one] | 0.079 nM
7 | COc1ccc(S(C)(=O)=O)cc1-c1cc2c(n1C(C)C)C(c1ccc(Cl)cc1)N(c1cn(C)nc1C)C2=O (stereo not drawn) [Example 183, 6-(4-Chloro-phenyl)-5-(1,3-dimethyl-1H-pyrazol-4-yl)-1-isopropyl-2-(5-methanesulfonyl-2-methoxy-phenyl)-5,6-dihydro-1H-pyrrolo[3,4-b]pyrrol-4-one] | 2.57 nM
8 | COc1nc(N(C)C)ncc1-c1cc2c(n1C(C)C)[C@@H](c1ccc(C#N)cc1)N(C1CCOCC1)C2=O [Example 191, 4-[(R)-2-(2-Dimethylamino-4-methoxy-pyrimidin-5-yl)-1-isopropyl-4-oxo-5-(tetrahydro-pyran-4-yl)-1,4,5,6-tetrahydro-pyrrolo[3,4-b]pyrrol-6-yl]-benzonitrile] | 280 nM
9 | CNc1ncc(-c2cc3c(n2C(C)C)C(c2ccc(Cl)cc2)N(c2cc(Cl)cn(C)c2=O)C3=O)c(OC)n1 (stereo not drawn) [Example 72, 5-(5-Chloro-1-methyl-2-oxo-1,2-dihydro-pyridin-3-yl)-6-(4-chloro-phenyl)-1-isopropyl-2-(4-methoxy-2-methylamino-pyrimidin-5-yl)-5,6-dihydro-1H-pyrrolo[3,4-b]pyrrol-4-one] | 0.295 nM
10 | COc1nc(N(C)C)ncc1-c1cc2c(n1C(C)C)[C@@H](c1ccc(Cl)c(F)c1)N(c1cc(Cl)c[nH]c1=O)C2=O [Example 228, (R)-6-(4-Chloro-3-fluoro-phenyl)-5-(5-chloro-2-oxo-1,2-dihydro-pyridin-3-yl)-2-(2-dimethylamino-4-methoxy-pyrimidin-5-yl)-1-isopropyl-5,6-dihydro-1H-pyrrolo[3,4-b]pyrrol-4-one] | 48.7 nM
11 | COc1nc(N(C)C)ncc1-c1cc2c(n1C(C)C)C(c1ccc(C#N)cc1)N(c1c(F)c(C)nn1C)C2=O (stereo not drawn) [Example 231, 4-(2-(2-(Dimethylamino)-4-methoxypyrimidin-5-yl)-5-(4-fluoro-1,3-dimethyl-1H-pyrazol-5-yl)-1-isopropyl-4-oxo-1,4,5,6-tetrahydropyrrolo[3,4-b]ppyrrol-6-yl)benzonitrile] | 0.224 nM
12 | COc1ncc(-c2cc3c(n2C(C)C)[C@@H](c2ccc(Cl)cc2)N(c2cc(Cl)ccc2C)C3=O)c(OC)n1 [Example 24, (R)-5-(5-Chloro-2-methyl-phenyl)-6-(4-chloro-phenyl)-2-(2,4-dimethoxy-pyrimidin-5-yl)-1-isopropyl-5,6-dihydro-1H-pyrrolo[3,4-b]pyrrol-4-one] | 29.6 nM
13 | COc1nc(N(C)C)ncc1-c1cc2c(n1C(C)C)C(c1ccc(Cl)cc1)N(C1CN(C)C(=O)N(C)C1)C2=O (stereo not drawn) [Example 159, 6-(4-Chloro-phenyl)-2-(2-dimethylamino-4-methoxy-pyrimidin-5-yl)-5-(1,3-dimethyl-2-oxo-hexahydro-pyrimidin-5-yl)-1-isopropyl-5,6-dihydro-1H-pyrrolo[3,4-b]pyrrol-4-one] | 0.161 nM
14 | COc1ncc(-c2c(C#N)c3c(n2C(C)C)C(c2ccc(Cl)cc2)N(c2cc(Cl)c(=O)n(C)c2)C3=O)c(OC)n1 (stereo not drawn) [Example 120, 5-(5-Chloro-1-methyl-6-oxo-1,6-dihydro-pyridin-3-yl)-6-(4-chloro-phenyl)-2-(2,4-dimethoxy-pyrimidin-5-yl)-1-isopropyl-4-oxo-1,4,5,6-tetrahydro-pyrrolo[3,4-b]pyrrole-3-carbonitrile] | 0.167 nM
15 | COc1ccccc1-c1c(C#N)c2c(n1C(C)C)C(c1ccc(Cl)cc1)N(c1cc(Cl)ccc1C)C2=O (stereo not drawn) [Example 59, 5-(5-Chloro-2-methyl-phenyl)-6-(4-chloro-phenyl)-1-isopropyl-2-(2-methoxy-phenyl)-4-oxo-1,4,5,6-tetrahydro-pyrrolo[3,4-b]pyrrole-3-carbonitrile] | 0.163 nM
16 | CNC(=O)Cc1cnc(OC)c(-c2cc3c(n2C(C)C)C(c2ccc(C#N)cc2)N(c2cccc(Cl)c2F)C3=O)c1 (stereo not drawn) [Example 85, 2-{5-[5-(3-Chloro-2-fluoro-phenyl)-6-(4-cyano-phenyl)-1-isopropyl-4-oxo-1,4,5,6-tetrahydro-pyrrolo[3,4-b]pyrrol-2-yl]-6-methoxy-pyridin-3-yl}-N-methyl-acetamide] | 3.16 nM
17 | COc1ncc(-c2cc3c(n2C(C)C)C(c2ccc(Cl)cc2)N(c2cc(C)nn2C)C3=O)c(OC)n1 (stereo not drawn) [Example 176, 6-(4-Chloro-phenyl)-2-(2,4-dimethoxy-pyrimidin-5-yl)-5-(2,5-dimethyl-2H-pyrazol-3-yl)-1-isopropyl-5,6-dihydro-1H-pyrrolo[3,4-b]pyrrol-4-one] | 0.87 nM
18 | COc1nc(N(C)C)ncc1-c1cc2c(n1C(C)C)C(c1ccc(Cl)cc1F)N(c1cc(C)nn1C)C2=O (stereo not drawn) [Example 212, 6-(4-Chloro-2-fluoro-phenyl)-2-(2-dimethylamino-4-methoxy-pyrimidin-5-yl)-5-(2,5-dimethyl-2H-pyrazol-3-yl)-1-isopropyl-5,6-dihydro-1H-pyrrolo[3,4-b]pyrrol-4-one] | 0.769 nM
